According to patent publication US5658910A, “Nicotinic acid esters” (Pharmacia AB, priority 1992, dated 1997):
pKi: −log10 of the molar value. Structures can show the parent of a compound that is named as a salt.

Assays:
5HT1A-receptors = biological target: T1, 5HT1A-receptors (Bos taurus, UniProt F6Q2H9); experiment: Affinity for 5HT1A-receptors (Test 2, Peroutka binding assay)
T1 construct: from tissue
T1 sequence (F6Q2H9 1-422): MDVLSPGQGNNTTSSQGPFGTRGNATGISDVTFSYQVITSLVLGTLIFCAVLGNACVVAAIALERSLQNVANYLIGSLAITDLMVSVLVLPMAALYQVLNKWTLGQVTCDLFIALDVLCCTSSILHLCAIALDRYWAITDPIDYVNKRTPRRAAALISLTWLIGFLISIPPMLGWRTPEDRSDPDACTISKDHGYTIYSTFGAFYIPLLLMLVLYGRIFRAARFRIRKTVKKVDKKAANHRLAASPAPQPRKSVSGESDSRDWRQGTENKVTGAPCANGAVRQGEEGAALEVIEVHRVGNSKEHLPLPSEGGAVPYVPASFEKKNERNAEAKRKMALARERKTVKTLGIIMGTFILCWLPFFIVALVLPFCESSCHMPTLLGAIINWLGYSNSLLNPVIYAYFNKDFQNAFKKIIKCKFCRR

5HT2-receptors = biological target: T2, 5HT2-receptors (Rattus norvegicus, UniProt P14842); experiment: Affinity for 5HT2-receptors (Test 1, 3H-ketanserin binding, Leysen et al.); conditions: 3H-ketanserin as ligand
T2 construct: from tissue
T2 sequence (P14842 whole entry): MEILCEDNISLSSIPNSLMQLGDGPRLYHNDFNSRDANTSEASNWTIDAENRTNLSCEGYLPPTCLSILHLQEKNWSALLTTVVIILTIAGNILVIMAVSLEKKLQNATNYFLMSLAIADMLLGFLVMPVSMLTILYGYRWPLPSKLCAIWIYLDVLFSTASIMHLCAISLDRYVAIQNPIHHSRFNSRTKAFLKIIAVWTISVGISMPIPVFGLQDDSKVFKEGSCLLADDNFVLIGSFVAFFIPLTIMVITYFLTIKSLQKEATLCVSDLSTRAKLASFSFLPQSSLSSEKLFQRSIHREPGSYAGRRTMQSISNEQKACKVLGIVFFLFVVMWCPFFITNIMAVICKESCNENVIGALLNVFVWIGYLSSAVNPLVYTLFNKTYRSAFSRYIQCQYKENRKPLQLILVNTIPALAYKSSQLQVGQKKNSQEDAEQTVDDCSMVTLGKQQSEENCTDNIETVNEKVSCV
Procedure: Test 1. Affinity for 5HT2-receptors
The binding assay was carried out essentially as described by Leysen et al., (Mol. Pharmcol. 21, 301-314, 1982) using 3 H-kezanserine as ligand.

In the case of `CC(C)CCOC(=O)c1cccnc1N1CCN(CCCC(c2ccc(F)cc2)c2ccc(F)cc2)CC1` [2:7, 1-[4,4-Bis(p-fluorophenyl)butyl]-4-(3-isoamyloxycarbonyl-2-pyridyl)-piperazine, hydrochloride], the pKi (5HT1A-receptors) was 7.85 and the pKi (5HT2-receptors) was 8.57.

`COC(=O)c1cccnc1N1CCN(CCCC(c2ccc(F)cc2)c2ccc(F)cc2)CC1` [2:4, 1-[4,4 -Bis(p-fluorophenyl)butyl]-4-(3-methoxycarbonyl-2-pyridyl)-piperazine, hydrochloride] showed a pKi (5HT1A-receptors) of 9.15 and a pKi (5HT2-receptors) of 8.40.

Work on `O=C(OCc1ccccn1)c1cccnc1N1CCN(CCCC(c2ccc(F)cc2)c2ccc(F)cc2)CC1` [2:10, 1-[4,4-Bis(p-fluorophenyl)butyl]-4-[3-(2-pyridinylmethoxycarbonyl)-2-pyridyl]-piperazine, hydrochloride] yielded a pKi (5HT2-receptors) of 9.22.

In the case of `CCOC(=O)c1cccnc1N1CCN(CCCC(c2ccc(F)cc2)c2ccc(F)cc2)CC1` [2:1, 3-Pyridinecarboxylic acid (2-(4-(4,4-bis(4-fluorophenyl)butyl)-1-piperazinyl-)ethyl ester hydrochloride], the pKi (5HT1A-receptors) was 8.92 and the pKi (5HT2-receptors) was 8.24.
